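96-well plates; 48 h exposure; 5 concentrations. Endpoints by linear interpolation between flanking doses. Not reached: highest tested concentration assigned. The concentration for full growth arrest is given as TGI.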
Experiments:
Experiment in all cases: inhibition of tumour cell growth, NCI panel, 48 h
SK-MEL-5 melanoma = tested on: SK-MEL-5 melanoma
SK-MEL-2 melanoma = tested on: SK-MEL-2 melanoma
MDA-MB-231 breast = tested on: MDA-MB-231 breast
HCT-15 colon = tested on: HCT-15 colon
ACHN renal = tested on: ACHN renal
SF-268 CNS = tested on: SF-268 CNS
RPMI-8226 leukemia = tested on: RPMI-8226 leukemia
IGROV1 ovarian = tested on: IGROV1 ovarian
HOP-92 NSCLC = tested on: HOP-92 NSCLC
NCI/ADR-RES ovarian = tested on: NCI/ADR-RES ovarian
OVCAR-3 ovarian = tested on: OVCAR-3 ovarian
OVCAR-8 ovarian = tested on: OVCAR-8 ovarian
HCT-116 colon = tested on: HCT-116 colon
MCF7 breast = tested on: MCF7 breast
NCI-H23 lung = tested on: NCI-H23 lung
TK-10 renal = tested on: TK-10 renal
SF-295 CNS = tested on: SF-295 CNS
A498 renal = tested on: A498 renal
HS 578T breast = tested on: HS 578T breast
UO-31 renal = tested on: UO-31 renal
SN12C renal = tested on: SN12C renal
HCC-2998 colon = tested on: HCC-2998 colon
HT29 colon = tested on: HT29 colon
M14 melanoma = tested on: M14 melanoma
CCRF-CEM leukemia = tested on: CCRF-CEM leukemia
OVCAR-5 ovarian = tested on: OVCAR-5 ovarian
SK-OV-3 ovarian = tested on: SK-OV-3 ovarian
BT-549 breast = tested on: BT-549 breast
K-562 leukemia = tested on: K-562 leukemia
UACC-62 melanoma = tested on: UACC-62 melanoma
RXF 393 renal = tested on: RXF 393 renal
CAKI-1 renal = tested on: CAKI-1 renal
SR leukemia = tested on: SR leukemia
LOX IMVI melanoma = tested on: LOX IMVI melanoma
A549 NSCLC = tested on: A549 NSCLC
SK-MEL-28 melanoma = tested on: SK-MEL-28 melanoma
EKVX NSCLC = tested on: EKVX NSCLC
U251 CNS = tested on: U251 CNS
NCI-H522 lung = tested on: NCI-H522 lung
HL-60(TB) leukemia = tested on: HL-60(TB) leukemia
OVCAR-4 ovarian = tested on: OVCAR-4 ovarian
COLO 205 colon = tested on: COLO 205 colon
NCI-H460 lung = tested on: NCI-H460 lung
NCI-H226 lung = tested on: NCI-H226 lung
SW-620 colon = tested on: SW-620 colon
UACC-257 melanoma = tested on: UACC-257 melanoma
KM12 colon = tested on: KM12 colon
MOLT-4 leukemia = tested on: MOLT-4 leukemia
DU-145 prostate = tested on: DU-145 prostate
PC-3 prostate = tested on: PC-3 prostate
MALME-3M melanoma = tested on: MALME-3M melanoma
SF-539 CNS = tested on: SF-539 CNS
SNB-19 CNS = tested on: SNB-19 CNS
SNB-75 CNS = tested on: SNB-75 CNS
MDA-MB-435 = tested on: MDA-MB-435
T-47D breast = tested on: T-47D breast
HOP-62 NSCLC = tested on: HOP-62 NSCLC
786-0 renal = tested on: 786-0 renal

Measured: TGI

COCn1cnc2c(=O)n(-c3ccc(C)cc3)c(=S)n(-c3ccc(C)cc3)c21
> 100 µM: all assays above

From PubChem BioAssay (NCI)
